{"source": "patent US20120284812A1", "about": "“Herbicide-Tolerant Plants” (BASF AGROCHEMICAL PRODUCTS, B.V., priority 2009, published 2012)", "key": {"rice plants": {"tested_on": "rice plants", "assay": "Greenhouse spray test of regenerants, rated for herbicide injury", "assay_type": "in vivo, Oryza sativa", "conditions": "400-1600 g ai/ha, 0.1% methylated seed oil, 1 and 2 weeks after treatment", "experimental": "Selected mutants and escapes were transferred to small pots. Wild-type cultivars and 3 biovars of red rice were germinated from seed to serve as controls.\nAfter ca. 3 weeks post-transplant, MO regenerants were sprayed using a track sprayer with 400-1600 g ai/ha cycloxydim (BAS 517H) supplemented with 0.1% methylated seed oil. After the plants had adapted to greenhouse conditions, a subset were sprayed with 800 g ai/ha cycloxydim. Once sprayed, plants were kept on drought conditions for 24 hours before being watered and fertilized again. Sprayed plants were photographed and rated for herbicide injury at 1 (FIG. 3) and 2 weeks after treatment (FIG. 4). […] FIGS. 5-15 provide nucleic acid and/or amino acid sequences of acetyl-Coenzyme A carboxylase enzymes from various plants. FIG. 17 provides a graph showing results for mutant rice versus various ACCase inhibitors."}, "rice calli": {"tested_on": "rice calli", "assay": "Kill curves: tissue survival of rice calli on herbicide media", "assay_type": "cell-based, Oryza sativa", "conditions": "determined by kill curves and observations of continued culture", "experimental": "Once tissue culture conditions were determined, further establishment of selection conditions were established through the analysis of tissue survival in kill curves with cycloxydim, tepraloxydim, sethoxydim (FIG. 1) or haloxyfop (not shown). Careful consideration of accumulation of the herbicide in the tissue, as well as its persistence and stability in the cells and the culture media was performed. Through these experiments, a sub-lethal dose has been established for the initial selection of mutated material.\nAfter the establishment of the starting dose of sethoxydim, cycloxydim, tepraloxydim, and haloxyfop in selection media, the tissues were selected in a step-wise fashion by increasing the concentration of the ACCase inhibitor with each transfer until cells are recovered that grew vigorously in the presence of toxic doses (see FIG. 2). The resulting calli were further subcultured every 3-4 weeks to R001M with selective agent. Over 26,000 calli were subjected to selection for 4-5 subcultures until the selective pressure was above toxic levels as determined by kill curves and observations of continued culture. Toxic levels were determined to be 50 μM sethoxydim, 20 μM cycloxydim, 2.5 μM tepraloxydim (FIG. 1) and 10 μM haloxyfop (not shown)."}, "[1]": {"tested_on": "ACCase-inhibitor tolerant rice plants", "assay": "Field treatment of ACCase-inhibitor tolerant rice plants", "assay_type": "in vivo", "conditions": "600 g/ha treatment, data not shown"}}, "data": [{"smiles": "CCCC(=NOCC)C1=C(O)CC(C2CCCSC2)CC1=O", "note": "(stereo not shown) [cycloxydim]", "values": [{"measurement": "herbicide injury", "setting": "rice plants; control plants and tissue culture escapes", "value": "heavily damaged"}, {"measurement": "herbicide injury", "setting": "rice plants; plants containing the I1,781 (Am)L heterozygous mutation", "value": "No injury"}, {"measurement": "Toxic levels", "setting": "rice calli", "value": 20, "unit": "µM"}, {"measurement": "herbicide tolerance phenotypes in the field", "setting": "[1]", "value": "exhibited"}]}, {"smiles": "CC(Oc1ccc(Oc2ncc(C(F)(F)F)cc2Cl)cc1)C(=O)O", "note": "(stereo not shown) [haloxyfop]", "values": [{"measurement": "Toxic levels", "setting": "rice calli", "value": 10, "unit": "µM"}]}, {"smiles": "CCC/C(=N\\OCC)C1=C(O)CC(CC(C)SCC)CC1=O", "note": "(stereo not shown) [sethoxydim]", "values": [{"measurement": "Toxic levels", "setting": "rice calli", "value": 50, "unit": "µM"}]}, {"smiles": "CC/C(=N\\OC/C=C/Cl)C1=C(O)CC(C2CCOCC2)CC1=O", "note": "(stereo not shown) [tepraloxydim]", "values": [{"measurement": "Toxic levels", "setting": "rice calli", "value": 2.5, "unit": "µM"}]}]}
